Data: the supplement of paper PMC5908809

Legend:
[1] = system: normal NK cells expanded with K562-aAPC; test: percent inhibition of viability; higher = more inhibition; conditions: 72 h, IL-2 2.5 ng/mL
Procedure: (§1)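 Drug sensitivity and resistance testing on K562-aAPC-expanded normal NK cells: 5 concentrations (10-fold steps over a 10,000-fold range), 72 h at 37 °C, viability by CellTiter-Glo normalised to DMSO and benzethonium chloride controls; DSS from the fitted curve.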

[2] = system: DERL-7 (IL-2 2.5 ng/mL); test: as above; conditions: 72 h
[3] = system: IMC-1 (IL-2 20 ng/mL); test: as above; conditions: 72 h
[4] = system: KAI3 (IL-2 2.5 ng/mL); test: as above; conditions: 72 h
[5] = system: KHYG-1 (IL-2 2.5 ng/mL); test: as above; conditions: 72 h
[6] = system: NK-92 (IL-2 2.5 ng/mL); test: as above; conditions: 72 h
[7] = system: NK-YS (IL-2 2.5 ng/mL); test: as above; conditions: 72 h
[8] = system: NKL (IL-2 2.5 ng/mL); test: as above; conditions: 72 h
[9] = system: SNK-6 (IL-2 2.5 ng/mL); test: as above; conditions: 72 h
[10] = system: YT (IL-2 2.5 ng/mL); test: as above; conditions: 72 h
[11] = system: normal primary NK cells, pool 1 (3 donors) (IL-2 2.5 ng/mL); test: as above; conditions: 72 h
[12] = system: normal primary NK cells, pool 1 (3 donors), resting (IL-2 0 ng/mL); test: as above; conditions: 72 h
[13] = system: normal primary NK cells, pool 2 (3 donors) (IL-2 2.5 ng/mL); test: as above; conditions: 72 h
[14] = system: normal primary NK cells, pool 3 (3 donors) (IL-2 2.5 ng/mL); test: as above; conditions: 72 h
[15] = system: normal NK cells expanded with K562-aAPC; test: drug sensitivity score (DSS) (DSS units); higher = more sensitive; extreme values may be limits of the assay; conditions: 72 h; IL-2 2.5 ng/mL
Procedure: as §1

[16] = system: DERL-7 (IL-2 2.5 ng/mL); test: as above; conditions: 72 h
[17] = system: IMC-1 (IL-2 20 ng/mL); test: as above; conditions: 72 h
[18] = system: KAI3 (IL-2 2.5 ng/mL); test: as above; conditions: 72 h
[19] = system: KHYG-1 (IL-2 2.5 ng/mL); test: as above; conditions: 72 h
[20] = system: NK-92 (IL-2 2.5 ng/mL); test: as above; conditions: 72 h
[21] = system: NK-YS (IL-2 2.5 ng/mL); test: as above; conditions: 72 h
[22] = system: NKL (IL-2 2.5 ng/mL); test: as above; conditions: 72 h
[23] = system: SNK-6 (IL-2 2.5 ng/mL); test: as above; conditions: 72 h
[24] = system: YT (IL-2 2.5 ng/mL); test: as above; conditions: 72 h
[25] = system: normal primary NK cells, pool 1 (3 donors) (IL-2 2.5 ng/mL); test: as above; conditions: 72 h
[26] = system: normal primary NK cells, pool 1 (3 donors), resting (IL-2 0 ng/mL); test: as above; conditions: 72 h
[27] = system: normal primary NK cells, pool 2 (3 donors) (IL-2 2.5 ng/mL); test: as above; conditions: 72 h
[28] = system: normal primary NK cells, pool 3 (3 donors) (IL-2 2.5 ng/mL); test: as above; conditions: 72 h

CC(=O)Nc1cccc(-n2c(=O)n(C3CC3)c(=O)c3c(Nc4ccc(I)cc4F)n(C)c(=O)c(C)c32)c1 [Trametinib] (max concentration tested 250 nM)
percent inhibition of viability [%]
Conditions	0.025 nM	0.25 nM	2.5 nM	25 nM	250 nM
[1]	-1.03	-2.71	-0.52	-0.63	1.09
[2]	1.02	7.15	24.3	38.5	49.2
[3]	-7.84	-6.23	-12.6	-5.74	-11.9
[4]	-0.65	10.4	14.7	17.6	21.2
[5]	-1.89	-0.88	17.2	47.1	54.2
[6]	-8.96	-8.36	-15.1	-31.2	-2.14
[7]	-3.76	0.79	3.16	13.2	9.03
[8]	-13.6	-3.27	31.2	60.9	62.5
[9]	8.07	2.1	-22.8	-18.2	-19.1
[10]	-2.64	-1.54	0.86	2.64	-0.71
[11]	-8.95	-7.23	10.8	8.62	17.9
[12]	-7.3	-4.37	3.53	-1.6	4.62
[13]	-4.75	-6.13	-1.09	4.26	-5.37
[14]	-14.5	-14.1	-12	-11.3	-11.4

Conditions	drug sensitivity score
[15]	0
[16]	10.2
[17]	0.89
[18]	4.13
[19]	10.7
[20]	0.89
[21]	1.13
[22]	15.5
[23]	0
[24]	0
[25]	1.13
[26]	0
[27]	0
[28]	0.89

Cc1ccc(F)c(NC(=O)Nc2ccc(-c3cccc4[nH]nc(N)c34)cc2)c1 [Linifanib] (max concentration tested 1000 nM)
percent inhibition of viability [%]
Conditions	0.1 nM	1 nM	10 nM	100 nM	1000 nM
[1]	-6.15	-1.69	-7.22	-1.27	8.03
[2]	-3.48	1.81	3.09	2.4	-1.99
[3]	-6.64	-7.44	-3.21	-3.37	1.06
[4]	-0.03	-0.25	-3.05	7.49	15.8
[5]	-6.67	-7.43	-4.03	-0.13	5.26
[6]	-24.1	-23.8	-13.7	-0.86	25.2
[7]	-6.27	-8.05	-4.24	4.76	5.97
[8]	-6.64	-0.61	0.44	14.6	17.6
[9]	-2.9	19.3	2.79	-3.57	-1.81
[10]	-5.45	-5.75	-1.04	3.95	7.04
[11]	-6.2	0.66	14.2	7.19	6.85
[12]	-0.38	0.34	17.6	14.6	9.36
[13]	-14	-8.34	-3.37	7.22	4.22
[14]	-14.8	-8.58	1.59	7.84	2.88

Conditions	drug sensitivity score
[15]	0
[16]	0
[17]	0
[18]	0.91
[19]	0
[20]	0.9
[21]	0
[22]	1.69
[23]	0
[24]	0
[25]	0.05
[26]	3.83
[27]	0
[28]	0
